{"source": "ChEMBL document CHEMBL5335843", "about": "“Application of tobramycin benzyl ether as an antibiotic adjuvant capable of sensitizing multidrug-resistant Gram-negative bacteria to rifampicin” (2024)", "assay_type_in_all_cases": "functional", "key": {"Pseudomonas aeruginosa [1]": {"system": "Pseudomonas aeruginosa", "experiment": "Antibiotic adjuvant activity against multi-drug resistant Pseudomonas aeruginosa clinical isolate PA101243 assessed as fractional inhibitory concentration index incubated for 18 hrs in presence of minocycline by two fold broth microdilution checkerboard assay"}, "Pseudomonas aeruginosa [2]": {"system": "Pseudomonas aeruginosa", "experiment": "Antibiotic adjuvant activity against Pseudomonas aeruginosa PAO1 assessed as minocycline MIC incubated for 18 hrs in presence of minocycline by two fold broth microdilution checkerboard assay"}, "Staphylococcus aureus [3]": {"system": "Staphylococcus aureus", "experiment": "Antibacterial activity against methicilin-resistant Staphylococcus aureus assessed as inhibition of bacterial growth incubated for 18 hrs by two fold broth microdilution assay"}, "Pseudomonas aeruginosa [4]": {"system": "Pseudomonas aeruginosa", "experiment": "Antibiotic adjuvant activity against multi-drug resistant Pseudomonas aeruginosa clinical isolate 114228 assessed as fold potentiation incubated for 18 hrs in presence of Rifampicin by two fold broth microdilution checkerboard assay"}, "Acinetobacter baumannii [5]": {"system": "Acinetobacter baumannii", "experiment": "Antibiotic adjuvant activity against multi-drug resistant Acinetobacter baumannii clinical isolate LAC-4 assessed as inhibition of bacterial growth incubated for 18 hrs in presence of Rifampicin by two fold broth microdilution checkerboard assay"}, "Pseudomonas aeruginosa [6]": {"system": "Pseudomonas aeruginosa", "experiment": "Antibiotic adjuvant activity against multi-drug resistant Pseudomonas aeruginosa clinical isolate PA259 assessed as fold potentiation incubated for 18 hrs in presence of Rifampicin by two fold broth microdilution checkerboard assay"}, "Pseudomonas aeruginosa [7]": {"system": "Pseudomonas aeruginosa", "experiment": "Antibiotic adjuvant activity against multi-drug resistant Pseudomonas aeruginosa clinical isolate PA264 assessed as fractional inhibitory concentration index incubated for 18 hrs in presence of minocycline by two fold broth microdilution checkerboard assay"}, "Enterococcus faecium [8]": {"system": "Enterococcus faecium", "experiment": "Antibiotic adjuvant activity against Enterococcus faecium 114278 assessed as rifampicin MIC incubated for 18 hrs in presence of rifampicin by two fold broth microdilution checkerboard assay"}, "Escherichia coli [9]": {"system": "Escherichia coli", "experiment": "Antibiotic adjuvant activity against multi-drug resistant Escherichia coli clinical isolate 107115 assessed as rifampicin MIC incubated for 18 hrs in presence of Rifampicin by two fold broth microdilution checkerboard assay"}, "Pseudomonas aeruginosa [10]": {"system": "Pseudomonas aeruginosa", "experiment": "Antibacterial activity against multi-drug resistant Pseudomonas aeruginosa clinical isolate 114228 assessed as inhibition of bacterial growth incubated for 18 hrs by two fold broth microdilution assay"}, "Escherichia coli [11]": {"system": "Escherichia coli", "experiment": "Antibiotic adjuvant activity against multi-drug resistant Escherichia coli clinical isolate EC107115 assessed as fold potentiation incubated for 18 hrs in presence of minocycline by two fold broth microdilution checkerboard assay"}, "Escherichia coli [12]": {"system": "Escherichia coli", "experiment": "Antibiotic adjuvant activity against multi-drug resistant Escherichia coli clinical isolate 94474 assessed as inhibition of bacterial growth incubated for 18 hrs in presence of Rifampicin by two fold broth microdilution checkerboard assay"}, "Pseudomonas aeruginosa [13]": {"system": "Pseudomonas aeruginosa", "experiment": "Antibiotic adjuvant activity against multi-drug resistant Pseudomonas aeruginosa clinical isolate PA259 assessed as inhibition of bacterial growth incubated for 18 hrs in presence of minocycline by two fold broth microdilution checkerboard assay"}, "Escherichia coli [14]": {"system": "Escherichia coli", "experiment": "Antibiotic adjuvant activity against multi-drug resistant Escherichia coli clinical isolate EC94474 assessed as inhibition of bacterial growth incubated for 18 hrs in presence of doxycycline by two fold broth microdilution checkerboard assay"}, "Acinetobacter baumannii [15]": {"system": "Acinetobacter baumannii", "experiment": "Antibiotic adjuvant activity against multi-drug resistant Acinetobacter baumannii clinical isolate LAC-4 assessed as rifampicin MIC incubated for 18 hrs in presence of Rifampicin by two fold broth microdilution checkerboard assay"}, "Escherichia coli [16]": {"system": "Escherichia coli", "experiment": "Antibiotic adjuvant activity against multi-drug resistant Escherichia coli clinical isolate EC94474 assessed as fractional inhibitory concentration index incubated for 18 hrs in presence of minocycline by two fold broth microdilution checkerboard assay"}, "Escherichia coli [17]": {"system": "Escherichia coli", "experiment": "Antibiotic adjuvant activity against multi-drug resistant Escherichia coli clinical isolate 94474 assessed as fold potentiation incubated for 18 hrs in presence of Rifampicin by two fold broth microdilution checkerboard assay"}, "Pseudomonas aeruginosa [18]": {"system": "Pseudomonas aeruginosa", "experiment": "Antibiotic adjuvant activity against multi-drug resistant Pseudomonas aeruginosa clinical isolate 101243 assessed as fractional inhibitory concentration index incubated for 18 hrs in presence of Rifampicin by two fold broth microdilution checkerboard assay"}, "Acinetobacter baumannii [19]": {"system": "Acinetobacter baumannii", "experiment": "Antibiotic adjuvant activity against multi-drug resistant Acinetobacter baumannii clinical isolate 92247 assessed as inhibition of bacterial growth incubated for 18 hrs in presence of Rifampicin by two fold broth microdilution checkerboard assay"}, "Escherichia coli [20]": {"system": "Escherichia coli", "experiment": "Antibiotic adjuvant activity against multi-drug resistant Escherichia coli clinical isolate EC107115 assessed as doxycycline MIC incubated for 18 hrs in presence of doxycycline by two fold broth microdilution checkerboard assay"}, "Pseudomonas aeruginosa [21]": {"system": "Pseudomonas aeruginosa", "experiment": "Antibiotic adjuvant activity against multi-drug resistant Pseudomonas aeruginosa clinical isolate PA264 assessed as inhibition of bacterial growth incubated for 18 hrs in presence of Rifampicin by two fold broth microdilution checkerboard assay"}, "Pseudomonas aeruginosa [22]": {"system": "Pseudomonas aeruginosa", "experiment": "Antibiotic adjuvant activity against multi-drug resistant Pseudomonas aeruginosa clinical isolate PA262 assessed as minocycline MIC incubated for 18 hrs in presence of minocycline by two fold broth microdilution checkerboard assay"}, "Escherichia coli [23]": {"system": "Escherichia coli", "experiment": "Antibacterial activity against multi-drug resistant Escherichia coli clinical isolate EC107115 assessed as inhibition of bacterial growth incubated for 18 hrs by two fold broth microdilution assay"}, "Pseudomonas aeruginosa [24]": {"system": "Pseudomonas aeruginosa", "experiment": "Antibiotic adjuvant activity against multi-drug resistant Pseudomonas aeruginosa clinical isolate PA264 assessed as fold potentiation incubated for 18 hrs in presence of minocycline by two fold broth microdilution checkerboard assay"}, "Enterococcus faecium [25]": {"system": "Enterococcus faecium", "experiment": "Antibiotic adjuvant activity against Enterococcus faecium 114278 assessed as fold potentiation incubated for 18 hrs in presence of rifampicin by two fold broth microdilution checkerboard assay"}, "Pseudomonas aeruginosa [26]": {"system": "Pseudomonas aeruginosa", "experiment": "Antibiotic adjuvant activity against multi-drug resistant Pseudomonas aeruginosa clinical isolate 114228 assessed as inhibition of bacterial growth incubated for 18 hrs in presence of Rifampicin by two fold broth microdilution checkerboard assay"}, "Escherichia coli [27]": {"system": "Escherichia coli", "experiment": "Antibiotic adjuvant activity against Escherichia coli ATCC 25922 assessed as fold potentiation incubated for 18 hrs in presence of novobiocin by two fold broth microdilution checkerboard assay"}, "Escherichia coli [28]": {"system": "Escherichia coli", "experiment": "Antibiotic adjuvant activity against multi-drug resistant Escherichia coli clinical isolate 94393 assessed as rifampicin MIC incubated for 18 hrs in presence of Rifampicin by two fold broth microdilution checkerboard assay"}, "Escherichia coli [29]": {"system": "Escherichia coli", "experiment": "Antibacterial activity against multi-drug resistant Escherichia coli clinical isolate 107115 assessed as inhibition of bacterial growth incubated for 18 hrs by two fold broth microdilution assay"}, "Staphylococcus aureus [30]": {"system": "Staphylococcus aureus", "experiment": "Antibiotic adjuvant activity against methicilin-resistant Staphylococcus aureus assessed as rifampicin MIC incubated for 18 hrs in presence of rifampicin by two fold broth microdilution checkerboard assay"}, "Escherichia coli [31]": {"system": "Escherichia coli", "experiment": "Antibiotic adjuvant activity against multi-drug resistant Escherichia coli clinical isolate EC107115 assessed as fold potentiation incubated for 18 hrs in presence of doxycycline by two fold broth microdilution checkerboard assay"}, "Acinetobacter baumannii [32]": {"system": "Acinetobacter baumannii", "experiment": "Antibacterial activity against multi-drug resistant Acinetobacter baumannii clinical isolate 92247 assessed as inhibition of bacterial growth incubated for 18 hrs by two fold broth microdilution assay"}, "Escherichia coli [33]": {"system": "Escherichia coli", "experiment": "Antibiotic adjuvant activity against Escherichia coli ATCC 25922 assessed as fold potentiation incubated for 18 hrs in presence of vancomycin by two fold broth microdilution checkerboard assay"}, "Acinetobacter baumannii [34]": {"system": "Acinetobacter baumannii", "experiment": "Antibiotic adjuvant activity against multi-drug resistant Acinetobacter baumannii clinical isolate AB031 assessed as rifampicin MIC incubated for 18 hrs in presence of Rifampicin by two fold broth microdilution checkerboard assay"}, "Escherichia coli [35]": {"system": "Escherichia coli", "experiment": "Antibacterial activity against multi-drug resistant Escherichia coli clinical isolate EC94474 assessed as inhibition of bacterial growth incubated for 18 hrs by two fold broth microdilution assay"}, "Acinetobacter baumannii [36]": {"system": "Acinetobacter baumannii", "experiment": "Antibiotic adjuvant activity against Acinetobacter baumannii ATCC 17978 assessed as fold potentiation incubated for 18 hrs in presence of rifampicin and CAMHB Mg2+ media by two fold broth microdilution checkerboard assay"}}}
{"smiles": "Cl.NC[C@H]1O[C@H](O[C@H]2[C@H](OCc3ccccc3)[C@@H](O[C@H]3O[C@H](COCc4ccccc4)[C@@H](OCc4ccccc4)[C@H](N)[C@H]3OCc3ccccc3)[C@H](N)C[C@@H]2N)[C@H](N)C[C@@H]1OCc1ccccc1", "values": [{"measurement": "fractional inhibitory concentration index (FICI)", "setting": "Pseudomonas aeruginosa [1]", "value": 1.063}, {"measurement": "MIC", "setting": "Pseudomonas aeruginosa [2]", "value": 0.5, "unit": "µg/mL"}, {"measurement": "MIC", "setting": "Staphylococcus aureus [3]", "value": 16, "unit": "µg/mL"}, {"measurement": "fold change (FC)", "setting": "Pseudomonas aeruginosa [4]", "value": 1}, {"measurement": "MIC", "setting": "Acinetobacter baumannii [5]", "value": 4, "unit": "µg/mL"}, {"measurement": "fold change (FC)", "setting": "Pseudomonas aeruginosa [6]", "value": 1}, {"measurement": "fractional inhibitory concentration index (FICI)", "setting": "Pseudomonas aeruginosa [7]", "value": 0.563}, {"measurement": "MIC", "setting": "Enterococcus faecium [8]", "value": 4, "unit": "µg/mL"}, {"measurement": "MIC", "setting": "Escherichia coli [9]", "value": 0.125, "unit": "µg/mL"}, {"measurement": "MIC", "setting": "Pseudomonas aeruginosa [10]", "value": 64, "unit": "µg/mL"}, {"measurement": "fold change (FC)", "setting": "Escherichia coli [11]", "value": 32}, {"measurement": "MIC", "setting": "Escherichia coli [12]", "value": 4, "unit": "µg/mL"}, {"measurement": "MIC", "setting": "Pseudomonas aeruginosa [13]", "value": 8, "unit": "µg/mL"}, {"measurement": "MIC", "setting": "Escherichia coli [14]", "value": 8, "unit": "µg/mL"}, {"measurement": "MIC", "setting": "Acinetobacter baumannii [15]", "value": 0.002, "unit": "µg/mL"}, {"measurement": "fractional inhibitory concentration index (FICI)", "setting": "Escherichia coli [16]", "value": 0.094}, {"measurement": "fold change (FC)", "setting": "Escherichia coli [17]", "value": 256}, {"measurement": "fractional inhibitory concentration index (FICI)", "setting": "Pseudomonas aeruginosa [18]", "value": 0.126}, {"measurement": "MIC", "setting": "Acinetobacter baumannii [19]", "value": 8, "unit": "µg/mL"}, {"measurement": "MIC", "setting": "Escherichia coli [20]", "value": 32, "unit": "µg/mL"}, {"measurement": "MIC", "setting": "Pseudomonas aeruginosa [21]", "value": 8, "unit": "µg/mL"}, {"measurement": "MIC", "setting": "Pseudomonas aeruginosa [22]", "value": 256, "unit": "µg/mL"}, {"measurement": "MIC", "setting": "Escherichia coli [23]", "value": 32, "unit": "µg/mL"}, {"measurement": "fold change (FC)", "setting": "Pseudomonas aeruginosa [24]", "value": 2}, {"measurement": "fold change (FC)", "setting": "Enterococcus faecium [25]", "value": 1}, {"measurement": "MIC", "setting": "Pseudomonas aeruginosa [26]", "value": 8, "unit": "µg/mL"}, {"measurement": "fold change (FC)", "setting": "Escherichia coli [27]", "value": 2048}, {"measurement": "MIC", "setting": "Escherichia coli [28]", "value": 32, "unit": "µg/mL"}, {"measurement": "MIC", "setting": "Escherichia coli [29]", "value": 32, "unit": "µg/mL"}, {"measurement": "MIC", "setting": "Staphylococcus aureus [30]", "value": 256, "unit": "µg/mL"}, {"measurement": "fold change (FC)", "setting": "Escherichia coli [31]", "value": 4}, {"measurement": "MIC", "setting": "Acinetobacter baumannii [32]", "value": 32, "unit": "µg/mL"}, {"measurement": "fold change (FC)", "setting": "Escherichia coli [33]", "value": 4}, {"measurement": "MIC", "setting": "Acinetobacter baumannii [34]", "value": 0.002, "unit": "µg/mL"}, {"measurement": "MIC", "setting": "Escherichia coli [35]", "value": 32, "unit": "µg/mL"}, {"measurement": "fold change (FC)", "setting": "Acinetobacter baumannii [36]", "value": 16}]}
